Assays:
[1] = system: HeLa; test: Cell cycle arrest in TNF-alpha-stimulated human HeLa cells transfected with NFkappaB-Luc assessed as accumulation at diploid G2 phase at 1 uM after 8 hrs by using propidium iodide staining by FACS analysis; assay type: functional
[2] = system: HeLa; test: Cell cycle arrest in TNF-alpha-stimulated human HeLa cells transfected with NFkappaB-Luc assessed as accumulation at diploid S phase at 1 uM after 8 hrs by using propidium iodide staining by FACS analysis; assay type: functional
[3] = system: HeLa; test: Cell cycle arrest in TNF-alpha-stimulated human HeLa cells transfected with NFkappaB-Luc assessed as accumulation at diploid stage at 0.5 uM after 8 hrs by using propidium iodide staining by FACS analysis; assay type: functional
[4] = system: HeLa; test: Cell cycle arrest in TNF-alpha-stimulated human HeLa cells transfected with NFkappaB-Luc assessed as accumulation at diploid S phase at 0.5 uM after 8 hrs by using propidium iodide staining by FACS analysis; assay type: functional
[5] = system: HeLa; test: Effect on cell cycle arrest in TNF-alpha-stimulated human HeLa cells transfected with NFkappaB-Luc assessed as cell debris level at 0.5 uM after 8 hrs by using propidium iodide staining by FACS analysis; assay type: functional
[6] = system: HeLa; test: Cell cycle arrest in TNF-alpha-stimulated human HeLa cells transfected with NFkappaB-Luc assessed as accumulation at diploid G2 phase at 0.1 uM after 8 hrs by using propidium iodide staining by FACS analysis; assay type: functional
[7] = system: HeLa; test: Cell cycle arrest in TNF-alpha-stimulated human HeLa cells transfected with NFkappaB-Luc assessed as accumulation at G2/G1 phase at 0.1 uM after 8 hrs by using propidium iodide staining by FACS analysis; assay type: functional
[8] = system: HeLa; test: Effect on cell cycle arrest in TNF-alpha-stimulated human HeLa cells transfected with NFkappaB-Luc assessed as total background cell aggregate and debris level at 0.1 uM after 8 hrs by using propidium iodide staining by FACS analysis; assay type: functional
[9] = system: HeLa; test: Cell cycle arrest in TNF-alpha-stimulated human HeLa cells transfected with NFkappaB-Luc assessed as accumulation at diploid G1 phase at 0.05 uM after 8 hrs by using propidium iodide staining by FACS analysis; assay type: functional
[10] = Cytotoxicity against IL-1-beta-stimulated human whole blood lymphocytes assessed as survival cell count in millions at 20 uM after 24 hrs by trypan blue staining-based hemocytometry
[11] = system: Blood; test: Antiinflammatory activity in human whole blood assessed as inhibition of IL-1-beta-stimulated IL6 production preincubated 2 hrs before IL1-beta challenge measured after 22 hrs by ELISA; assay type: functional, tissue-based
[12] = Inhibition of NF-kappaB-mediated gene transcription expressed in TNF-alpha-stimulated human HeLa cells for 30 mins before TNFalpha challenge measured after 8 hrs by steady-glo luciferase reporter gene assay; assay type: cell-based
[13] = system: HeLa; test: Effect on cell cycle arrest in human HeLa cells transfected with NFkappaB-Luc assessed as total background cell aggregate and debris level at 20 uM after 8 hrs by using propidium iodide staining by FACS analysis; assay type: functional
[14] = system: HeLa; test: Effect on cell cycle arrest in human HeLa cells transfected with NFkappaB-Luc assessed as cell debris level at 20 uM after 8 hrs by using propidium iodide staining by FACS analysis; assay type: functional
[15] = system: HeLa; test: Effect on cell cycle arrest in human HeLa cells transfected with NFkappaB-Luc assessed as cell aggregate level at 20 uM after 8 hrs by using propidium iodide staining by FACS analysis; assay type: functional
[16] = system: HeLa; test: Cell cycle arrest in TNF-alpha-stimulated human HeLa cells transfected with NFkappaB-Luc assessed as accumulation at diploid S phase at 20 uM after 8 hrs by using propidium iodide staining by FACS analysis; assay type: functional
[17] = system: HeLa; test: Cell cycle arrest in TNF-alpha-stimulated human HeLa cells transfected with NFkappaB-Luc assessed as accumulation at total S phase at 20 uM after 8 hrs by using propidium iodide staining by FACS analysis; assay type: functional
[18] = system: HeLa; test: Effect on cell cycle arrest in TNF-alpha-stimulated human HeLa cells transfected with NFkappaB-Luc assessed as total background cell aggregate and debris level at 20 uM after 8 hrs by using propidium iodide staining by FACS analysis; assay type: functional
[19] = system: HeLa; test: Effect on cell cycle arrest in TNF-alpha-stimulated human HeLa cells transfected with NFkappaB-Luc assessed as cell aggregate level at 20 uM after 8 hrs by using propidium iodide staining by FACS analysis; assay type: functional
[20] = system: HeLa; test: Cell cycle arrest in TNF-alpha-stimulated human HeLa cells transfected with NFkappaB-Luc assessed as accumulation at total S phase at 10 uM after 8 hrs by using propidium iodide staining by FACS analysis; assay type: functional
[21] = system: HeLa; test: Cell cycle arrest in TNF-alpha-stimulated human HeLa cells transfected with NFkappaB-Luc assessed as accumulation at diploid stage at 5 uM after 8 hrs by using propidium iodide staining by FACS analysis; assay type: functional

For CCOC(=O)[C@]1(c2ccccc2)N=C(c2ccccc2)N(Cc2ccccc2)[C@@H]1c1ccccc1 (racemic), the Activity [1] was 13.88%, the Activity [2] was 22.9% and the Activity [3] was 100%. For the same compound, the Activity [4] was 22.52%, the Activity [5] was 3.68% and the Activity [6] was 14.03%. For the same compound, the Activity [7] was 1.92%, the Activity [8] was 0.58% and the Activity [9] was 64.3%. It also gave an Activity [10] of 0.98 mL⁻¹, an IC50 [11] of 2500 nM and an EC50 [12] of 2500 nM. It also gave an Activity [13] of 3.86%, an Activity [14] of 9.42% and an Activity [15] of 0%. For the same compound, the Activity [16] was 19.29%, the Activity [17] was 19.29% and the Activity [18] was 5.59%. It also gave an Activity [19] of 0%, an Activity [20] of 16.8% and an Activity [21] of 100%.
